Assay results from US20250213555A1, “SUBSTITUTED TETRAHYDROFURAN ANALOGS AS MODULATORS OF SODIUM CHANNELS” (VERTEX PHARMACEUTICALS INCORPORATED, priority 2021, published 2025).

Target: human Nav 1.8 (Homo sapiens, UniProt Q9Y5Y9)
Experiment: E-VIPR assay detecting and measuring Nav inhibition properties
Type: cell-based
Conditions: HEK cells expressing a truncated form of human Nav 1.8; compound numbers without "*" (not marked as run in the presence of human serum); read-out: measured IC50 value in the E-VIPR Assay
In short: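 Nav inhibition was read by E-VIPR: cells were electrically stimulated while coumarin/oxonol FRET emissions were recorded. Cells were HEK expressing a truncated human Nav 1.8 and co-transduced with KIR2.1, and were assayed in 25% final human serum.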

human Nav 1.8, sequence (Q9Y5Y9 126-399 limits assumed): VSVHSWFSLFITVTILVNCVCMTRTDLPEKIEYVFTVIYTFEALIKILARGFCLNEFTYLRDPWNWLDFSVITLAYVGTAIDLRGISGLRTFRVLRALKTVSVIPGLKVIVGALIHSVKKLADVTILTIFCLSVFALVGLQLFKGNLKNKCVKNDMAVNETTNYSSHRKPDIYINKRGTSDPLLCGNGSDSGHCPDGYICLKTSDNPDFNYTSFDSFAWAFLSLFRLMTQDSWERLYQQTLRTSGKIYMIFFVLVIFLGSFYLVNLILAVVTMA
human Nav 1.8, sequence (Q9Y5Y9 660-890 limits assumed): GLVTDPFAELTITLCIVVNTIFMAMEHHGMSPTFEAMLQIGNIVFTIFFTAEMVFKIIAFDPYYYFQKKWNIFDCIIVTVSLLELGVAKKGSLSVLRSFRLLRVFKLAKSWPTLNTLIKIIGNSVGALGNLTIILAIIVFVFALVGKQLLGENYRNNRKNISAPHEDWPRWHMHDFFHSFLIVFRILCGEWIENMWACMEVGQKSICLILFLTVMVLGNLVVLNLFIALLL
human Nav 1.8, sequence (Q9Y5Y9 1148-1722 limits assumed): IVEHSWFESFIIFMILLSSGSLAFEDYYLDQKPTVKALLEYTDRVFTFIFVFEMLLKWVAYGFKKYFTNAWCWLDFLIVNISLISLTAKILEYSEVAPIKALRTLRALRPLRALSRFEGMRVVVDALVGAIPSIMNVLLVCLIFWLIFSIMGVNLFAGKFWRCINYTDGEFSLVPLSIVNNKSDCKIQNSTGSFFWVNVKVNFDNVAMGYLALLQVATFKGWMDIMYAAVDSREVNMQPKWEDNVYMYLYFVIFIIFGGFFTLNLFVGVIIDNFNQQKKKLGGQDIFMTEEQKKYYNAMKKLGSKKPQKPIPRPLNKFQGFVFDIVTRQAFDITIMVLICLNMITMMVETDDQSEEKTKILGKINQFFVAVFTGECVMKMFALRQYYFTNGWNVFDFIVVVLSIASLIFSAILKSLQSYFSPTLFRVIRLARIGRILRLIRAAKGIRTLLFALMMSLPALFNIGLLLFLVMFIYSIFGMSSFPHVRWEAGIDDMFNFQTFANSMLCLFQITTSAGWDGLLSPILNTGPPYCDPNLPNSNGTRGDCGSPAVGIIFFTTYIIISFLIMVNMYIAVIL

`C[C@H]1[C@@H](c2ccc(F)c(F)c2OCCN2CC3(CCO3)C2)[C@H](C(=O)Nc2ccnc(C(N)=O)c2)O[C@@]1(C)C(F)(F)F` [Compound 57, 4-((2R,3S,4S,5R)-3-(2-(2-(1-oxa-6-azaspiro[3.3]heptan-6-yl)ethoxy)-3,4-difluorophenyl)-4,5-dimethyl-5-(trifluoromethyl)tetrahydrofuran-2-carboxamido)picolinamide] gave an IC50 of under 10 nM.

Work on `C[C@H]1[C@@H](c2ccc(F)c(F)c2OC2COC2)[C@H](C(=O)Nc2ccnc(C(N)=O)c2)O[C@@]1(C)C(F)(F)F` [Compound 58, 4-((2R,3S,4S,5R)-3-(3,4-difluoro-2-(oxetan-3-yloxy)phenyl)-4,5-dimethyl-5-(trifluoromethyl)tetrahydrofuran-2-carboxamido) picolinamide] yielded an IC50 of under 10 nM.

Work on `C[C@H]1[C@@H](c2ccc(F)c(F)c2OCc2nccn2C)[C@H](C(=O)Nc2ccnc(C(N)=O)c2)O[C@@]1(C)C(F)(F)F` [Compound 61, 4-((2R,3S,4S,5R)-3-(3,4-difluoro-2-((1-methyl-1H-imidazol-2-yl)methoxy)phenyl)-4,5-dimethyl-5-(trifluoromethyl)tetrahydrofuran-2-carboxamido)picolinamide] yielded an IC50 of under 10 nM.

`C[C@H]1[C@@H](c2ccc(F)c(F)c2OCCCN2CCOCC2)[C@H](C(=O)Nc2ccnc(C(N)=O)c2)O[C@@]1(C)C(F)(F)F` [Compound 62, 4-((2R,3S,4S,5R)-3-(3,4-difluoro-2-(3-morpholinopropoxy)phenyl)-4,5-dimethyl-5-(trifluoromethyl)tetrahydrofuran-2-carboxamido)picolinamide] was tested, and the IC50 was under 10 nM.

With `C[C@H]1[C@@H](c2ccc(F)c(F)c2OCC2(C)COC2)[C@H](C(=O)Nc2ccnc(C(N)=O)c2)O[C@@]1(C)C(F)(F)F` [Compound 63, 4-((2R,3S,4S,5R)-3-(3,4-difluoro-2-((3-methyloxetan-3-yl)methoxy)phenyl)-4,5-dimethyl-5-(trifluoromethyl)tetrahydrofuran-2-carboxamido)picolinamide] the IC50 was 10 to 100 nM.

With `C[C@H]1[C@@H](c2ccc(F)c(F)c2OCC2(F)COC2)[C@H](C(=O)Nc2ccnc(C(N)=O)c2)O[C@@]1(C)C(F)(F)F` [Compound 64, 4-((2R,3S,4S,5R)-3-(3,4-difluoro-2-((3-fluorooxetan-3-yl)methoxy)phenyl)-4,5-dimethyl-5-(trifluoromethyl)tetrahydrofuran-2-carboxamido)picolinamide] the IC50 was under 10 nM.

Compound `C[C@H]1[C@@H](c2ccc(F)c(F)c2OC2CCOCC2)[C@H](C(=O)Nc2ccnc(C(N)=O)c2)O[C@@]1(C)C(F)(F)F` [Compound 65, 4-((2R,3S,4S,5R)-3-(3,4-difluoro-2-((tetrahydro-2H-pyran-4-yl)oxy)phenyl)-4,5-dimethyl-5-(trifluoromethyl)tetrahydrofuran-2-carboxamido)picolinamide] has an IC50 of under 10 nM.

In the case of `CNC(=O)c1cc(NC(=O)[C@@H]2O[C@@](C)(C(F)(F)F)[C@@H](C)[C@H]2c2ccc(F)c(F)c2OCC2COC2)ccn1` [Compound 66], the IC50 is reported as under 10 nM.

With `C[C@H]1[C@@H](c2ccc(F)c(F)c2OCC#N)[C@H](C(=O)Nc2ccnc(C(N)=O)c2)O[C@@]1(C)C(F)(F)F` [Compound 69, 4-((2R,3S,4S,5R)-3-(2-(cyanomethoxy)-3,4-difluorophenyl)-4,5-dimethyl-5-(trifluoromethyl)tetrahydrofuran-2-carboxamido)picolinamide] the IC50 was under 10 nM.

Work on `C[C@H]1[C@@H](c2ccc(F)c(F)c2OCC2COC2)[C@H](C(=O)Nc2ccnc(C(N)=O)c2)O[C@@]1(C)C(F)(F)F` [Compound 70, 4-((2R,3S,4S,5R)-3-(3,4-difluoro-2-(oxetan-3-ylmethoxy)phenyl)-4,5-dimethyl-5-(trifluoromethyl)tetrahydrofuran-2-carboxamido)picolinamide] yielded an IC50 of under 10 nM.

Work on `C[C@H]1[C@@H](c2ccc(F)c(F)c2OCC(C)(C)CO)[C@H](C(=O)Nc2ccnc(C(N)=O)c2)O[C@@]1(C)C(F)(F)F` [Compound 71, 4-((2R,3S,4S,5R)-3-(3,4-difluoro-2-(3-hydroxy-2,2-dimethylpropoxy)phenyl)-4,5-dimethyl-5-(trifluoromethyl)tetrahydrofuran-2-carboxamido)picolinamide] yielded an IC50 of 100 to 1000 nM.

With `C[C@H]1[C@@H](c2ccc(F)c(F)c2OCCCO)[C@H](C(=O)Nc2ccnc(C(N)=O)c2)O[C@@]1(C)C(F)(F)F` [Compound 72, 4-((2R,3S,4S,5R)-3-(3,4-difluoro-2-(3-hydroxypropoxy)phenyl)-4,5-dimethyl-5-(trifluoromethyl)tetrahydrofuran-2-carboxamido)picolinamide] the IC50 was under 10 nM.

With `C[C@H]1[C@@H](c2ccc(F)c(F)c2OCc2cnn(C)c2)[C@H](C(=O)Nc2ccnc(C(N)=O)c2)O[C@@]1(C)C(F)(F)F` [Compound 73, 4-((2R,3S,4S,5R)-3-(3,4-difluoro-2-((1-methyl-1H-pyrazol-4-yl)methoxy)phenyl)-4,5-dimethyl-5-(trifluoromethyl)tetrahydrofuran-2-carboxamido)picolinamide] the IC50 was under 10 nM.

`C[C@H]1[C@@H](c2ccc(F)c(F)c2OCCC(C)(C)C#N)[C@H](C(=O)Nc2ccnc(C(N)=O)c2)O[C@@]1(C)C(F)(F)F` [Compound 74, 4-((2R,3S,4S,5R)-3-(2-(3-cyano-3-methylbutoxy)-3,4-difluorophenyl)-4,5-dimethyl-5-(trifluoromethyl)tetrahydrofuran-2-carboxamido)picolinamide] gave an IC50 of 10 to 100 nM.

For `C=C(COc1c([C@H]2[C@H](C(=O)Nc3ccnc(C(N)=O)c3)O[C@@](C)(C(F)(F)F)[C@H]2C)ccc(F)c1F)C(F)(F)F` [Compound 75, 4-((2R,3S,4S,5R)-3-(3,4-difluoro-2-((2-(trifluoromethyl)allyl)oxy)phenyl)-4,5-dimethyl-5-(trifluoromethyl)tetrahydrofuran-2-carboxamido)picolinamide], the IC50 was under 10 nM.

`C[C@H]1[C@@H](c2ccc(F)c(F)c2OCCCC#N)[C@H](C(=O)Nc2ccnc(C(N)=O)c2)O[C@@]1(C)C(F)(F)F` [Compound 76, 4-((2R,3S,4S,5R)-3-(2-(3-cyanopropoxy)-3,4-difluorophenyl)-4,5-dimethyl-5-(trifluoromethyl)tetrahydrofuran-2-carboxamido)picolinamide] gave an IC50 of under 10 nM.

`C[C@H]1[C@@H](c2ccc(F)c(F)c2OCCC2(C#N)CC2)[C@H](C(=O)Nc2ccnc(C(N)=O)c2)O[C@@]1(C)C(F)(F)F` [Compound 77, 4-((2R,3S,4S,5R)-3-(2-(2-(1-cyanocyclopropyl)ethoxy)-3,4-difluorophenyl)-4,5-dimethyl-5-(trifluoromethyl)tetrahydrofuran-2-carboxamido)picolinamide] showed an IC50 of under 10 nM.

For `COCC(COc1c([C@H]2[C@H](C(=O)Nc3ccnc(C(N)=O)c3)O[C@@](C)(C(F)(F)F)[C@H]2C)ccc(F)c1F)OC` (stereo partly drawn) [Compound 78, 4-((2R,3S,4S,5R)-3-(2-(2,3-dimethoxypropoxy)-3,4-difluorophenyl)-4,5-dimethyl-5-(trifluoromethyl)tetrahydrofuran-2-carboxamido)picolinamide], the IC50 was under 10 nM.

Work on `CC(=O)COc1c([C@H]2[C@H](C(=O)Nc3ccnc(C(N)=O)c3)O[C@@](C)(C(F)(F)F)[C@H]2C)ccc(F)c1F` [Compound 79, 4-((2R,3S,4S,5R)-3-(3,4-difluoro-2-(2-oxopropoxy)phenyl)-4,5-dimethyl-5-(trifluoromethyl)tetrahydrofuran-2-carboxamido)picolinamide] yielded an IC50 of 10 to 100 nM.

Work on `C[C@H]1[C@@H](c2ccc(F)c(F)c2OC2CC(C#N)C2)[C@H](C(=O)Nc2ccnc(C(N)=O)c2)O[C@@]1(C)C(F)(F)F` (stereo partly drawn) [Compound 80, 4-((2R,3S,4S,5R)-3-(2-(3-cyanocyclobutoxy)-3,4-difluorophenyl)-4,5-dimethyl-5-(trifluoromethyl)tetrahydrofuran-2-carboxamido)picolinamide] yielded an IC50 of under 10 nM.

`C[C@@H](CO)COc1c([C@H]2[C@H](C(=O)Nc3ccnc(C(N)=O)c3)O[C@@](C)(C(F)(F)F)[C@H]2C)ccc(F)c1F` [Compound 81, 4-((2R,3S,4S,5R)-3-(3,4-difluoro-2-((S)-3-hydroxy-2-methylpropoxy)phenyl)-4,5-dimethyl-5-(trifluoromethyl)tetrahydrofuran-2-carboxamido)picolinamide] showed an IC50 of under 10 nM.

With `C[C@H](CO)COc1c([C@H]2[C@H](C(=O)Nc3ccnc(C(N)=O)c3)O[C@@](C)(C(F)(F)F)[C@H]2C)ccc(F)c1F` [Compound 82, 4-((2R,3S,4S,5R)-3-(3,4-difluoro-2-((R)-3-hydroxy-2-methylpropoxy)phenyl)-4,5-dimethyl-5-(trifluoromethyl)tetrahydrofuran-2-carboxamido)picolinamide] the IC50 was under 10 nM.

For `C[C@H]1[C@@H](c2ccc(F)c(F)c2OCc2cc[nH]n2)[C@H](C(=O)Nc2ccnc(C(N)=O)c2)O[C@@]1(C)C(F)(F)F` [Compound 83, 4-((2R,3S,4S,5R)-3-(2-((1H-pyrazol-3-yl)methoxy)-3,4-difluorophenyl)-4,5-dimethyl-5-(trifluoromethyl)tetrahydrofuran-2-carboxamido)picolinamide], the IC50 was under 10 nM.

`CNC(=O)c1cc(NC(=O)[C@@H]2O[C@@](C)(C(F)(F)F)[C@@H](C)[C@H]2c2ccc(F)c(F)c2OCCO)cc[n+]1[O-]` [Compound 84, 4-((2R,3S,4S,5R)-3-(3,4-difluoro-2-(2-hydroxyethoxy)phenyl)-4,5-dimethyl-5-(trifluoromethyl)tetrahydrofuran-2-carboxamido)-2-(methylcarbamoyl)pyridine 1-oxide] was tested, and the IC50 was 10 to 100 nM.

In the case of `C[C@H]1[C@@H](c2ccc(F)c(F)c2OCCc2cn(C)cn2)[C@H](C(=O)Nc2ccnc(C(N)=O)c2)O[C@@]1(C)C(F)(F)F` [Compound 85, 4-((2R,3S,4S,5R)-3-(3,4-difluoro-2-(2-(1-methyl-1H-imidazol-4-yl)ethoxy)phenyl)-4,5-dimethyl-5-(trifluoromethyl)tetrahydrofuran-2-carboxamido) picolinamide], the IC50 is reported as under 10 nM.
